Results: PMC5614969, “High-Affinity Functional Fluorescent Ligands for Human β-Adrenoceptors” (Scientific Reports, 2017)
Like-named read-outs stand apart in the source and are kept apart here.

Assays:
β2AR [1] = target: T1, β2AR (Homo sapiens, UniProt P07550); assay: cAMP FRET sensor (TEpacVV) agonist assay in HEK 293 cells; assay type: cell-based; settings: for intracellular cAMP level: addition of probe to the cells, 60 min at room temperature (Suppl. Fig. 13)
Protocol: Upon cAMP binding, the sensor undergoes a conformational change resulting in a decrease of the FRET efficiency between two fluorescent proteins: mTurquoise - a version of cyan fluorescent protein (CFP) as the donor, and yellow fluorescent protein (YFP) as the acceptor (Fig. 3a).
The intracellular cyclic adenosine monophosphate (cAMP) levels were determined with HEK 293 cells expressing a 3′,5′-cAMP FRET sensor. The cells were a generous gift from Ruud Hovius from École poly-technique fédérale de Lausanne (EPFL). The cAMP production induces a conformational switch in ^TEpac^VV and causes a decrease in FRET efficiency, i.e. a decreased energy transfer between the two fluorescent proteins (donor mTurquoise and acceptor YFP)[32].
(§1) The culture was maintained by subculturing the cells every 4 to 5 days using the standard trypsinization procedure. Before measurements, cells were trypsinated and transferred in a 96-well glass bottom plate (MatTek Corporation; Cat. No. P96GC-1.5–5-F) to contain 10,000–30,000 cells per well in 200 µL of DMEM media. After 24 h incubation in 5% CO2 at 37 °C, the cells were washed with HBSS pH 7.2 (200 µL), and the wells were filled with 200 µL HBSS. The DMSO stock solutions of the fluorescent probes were diluted 5,000 times in HBSS and used in experiments. […] The fluorescent ligand solutions of different concentrations in HBSS were premixed with the isoprenaline solution. 50 µL of a final solution was added to each well and the measurement was started upon addition and continued for 1 h in 10 min intervals between the readouts (inclusive).
(§2) The ligands were added using an automated pipette to initiate the sensor response. FRET readout from the cAMP sensor was performed on a multiwell plate reader Spark 20 M (Tecan) at room temperature (25 °C). Fluorescence readout amplitudes were calculated from time series for different ligand concentrations, following background subtraction (media only). […] Data were derived from 3 independent experiments and each independent experiment was performed in triplicate.
(§3) Sensor response R(CFP/FRET) was calculated using (1):1 R(CFP/FRET)=(FimTurquoise−FbkgmTurquoise)/(FiFRET−FbkgFRET) where F i ^mTurquoise – mTurquoise fluorescence intensity in the wells with cells; F bkg ^mTurquoise - mTurquoise fluorescence intensity in the control wells without cells; F i ^FRET – FRET signal intensity in the wells with cells; F bkg ^FRET – FRET signal intensity in the control wells without cells. For every result, R(CFP/FRET) ratio was normalized to the R(CFP/FRET) response of DMSO sample.

[2] = pH dependence of ligand fluorescence; assay type: physicochemical
Protocol: pH dependence of βAR ligands fluorescence were recorded on a multiwell plate reader Spark 20 M (Tecan) in 96-well glass bottom plates (MatTek Corporation; Cat. No. PBK96G-1.5-5-F) in PBS solutions (pH 4.7–8.0) at room temperature (25 °C). The 100x stock solutions of ligands were prepared in DMSO.

β2AR-YFP fusion protein [3] = target: T2, β2AR-YFP fusion protein (Homo sapiens, UniProt P07550); assay: Confocal imaging of living U2OS cells expressing β2AR-YFP (staining, internalization, competitive displacement, no-wash); assay type: cell-based; settings: for Receptor internalization / Staining performance: U2OS cells expressing β2AR-YFP; for Staining performance: 610CP ligands at 1.9 µM (19) and 2.5 µM (16); for Competitive displacement: 100 nM probe (5 nM ab118171) with 10 µM unlabeled BI-167107 or carazolol, 30 min
T2 construct: host or cells: U2OS
T2 sequence (P07550 whole entry, the tested form may be a part): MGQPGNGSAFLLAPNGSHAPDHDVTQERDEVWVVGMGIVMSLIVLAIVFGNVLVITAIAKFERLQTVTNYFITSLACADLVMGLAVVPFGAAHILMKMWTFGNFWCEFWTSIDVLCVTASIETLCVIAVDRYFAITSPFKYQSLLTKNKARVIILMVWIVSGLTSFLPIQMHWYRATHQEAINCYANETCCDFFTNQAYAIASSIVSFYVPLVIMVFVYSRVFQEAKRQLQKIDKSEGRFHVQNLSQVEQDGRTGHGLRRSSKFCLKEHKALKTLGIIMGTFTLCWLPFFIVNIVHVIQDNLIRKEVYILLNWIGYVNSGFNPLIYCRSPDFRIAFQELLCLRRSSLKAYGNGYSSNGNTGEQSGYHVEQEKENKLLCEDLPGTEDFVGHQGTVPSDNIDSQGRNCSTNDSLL
Protocol: U2OS cells (ATCC) were cultured in high-glucose DMEM (Dulbecco’s Modified Eagle medium, Thermo Fisher Scientific) supplemented with GlutaMAX-1 (Thermo Fisher Scientific) and 10% fetal bovine serum (FBS) (Thermo Fisher Scientific) in a humidified 5% CO2 incubator at 37 °C. CAPAN-1 cells (ATCC) were cultured in McCoy’s 5a Medium Modified supplemented with 10% fetal bovine serum (FBS) (Thermo Fisher Scientific) in a humidified 5% CO2 atmosphere at 37 °C. Cells were split every 3–5 days or at confluence. Cells were seeded in glass bottom 12-well plates (MatTek Corporation). […] We used 200,000 cells per well, 3 µg plasmid DNA and 3 µl of Lipofectamine 2000.
We performed imaging 48–72 h after transfection. Staining of the transfected cell was performed in Hanks’ balanced salt solution (HBSS, Lonza) without Phenol Red for 30–40 min at room temperature (to minimize internalization). Samples were washed two times with HBSS, and cells were imaged in DMEM (Thermo Fisher Scientific) supplemented with GlutaMAX-1 (Thermo Fisher Scientific) and 10% fetal bovine serum (FBS). For all staining experiments with cells, stock solutions of dyes in DMSO were used, and final DMSO content was < 0.5%. Imaging was performed on Leica SP8 (Leica Microsystems) or Abberior STED (Abberior Instruments GmbH) microscopes.
Competitive displacement experiment was performed in living U2OS cells expressing β2AR-YFP fusion protein.
Confocal imaging was performed on a Leica SP8 (Leica Microsystems, Mannheim, Germany) inverted confocal microscope equipped with an HC PL APO CS2 63x/1.40 Oil objective. Images were acquired using a 700 Hz bidirectional scanner, pixel size of 70 nm × 70 nm, pinhole of 95.6 µm diameter(1 AU) and frame averaging of 2.

β2AR-YFP fusion protein [4] = target: T2, β2AR-YFP fusion protein; assay: as above; assay type: cell-based; settings: 90 min, 100 nM carazolol-KK114 (24), 5 nM ab118171, no washing
β2AR [5] = target: T1, β2AR; assay: cAMP FRET sensor assay, competitive displacement of isoprenaline by antagonists in HEK293 cells; assay type: cell-based
Protocol: as §1, with “experiments. In the antagonist inhibition experiment, we used β1 and β2 adrenoceptor agonist isoprenaline (abcr GmbH) as a positive control causing cAMP elevation.” for “experiments.”
as §2, §3
K i ^app were calculated using the Cheng-Prusoff equation (2):2 Kiapp=IC50/[A]/EC50+1 where [A] – concentration of the isoprenaline; IC50 – fitted half maximal inhibitory concentration of labeled antagonist; EC50 – fitted half maximal response concentration of isoprenaline.

T1 sequence (P07550 whole entry): as the sequence (P07550 whole entry, the tested form may be a part) above

## Cc1c(CCC(=O)NCCOCCOCCNC(=O)CCN(C)C(=O)c2c(F)c(F)c(F)c(F)c2C2=c3cc4c5c(c3Oc3c2cc2c6c3CCCN6C(C)(C)C=C2CS(=O)(=O)O)CCC[N+]=5C(C)(C)C=C4CS(=O)(=O)[O-])cccc1CC(C)(C)NCC(O)c1ccc(O)c2c1OCC(=O)N2 (stereo not drawn) [BI-PEG-KK114 (18)]
β2AR [1]; HEK 293 expressing 3′,5′-cAMP FRET sensor, 30 min incubation, room temperature, read-out: EC50 (mean ± SD)
  EC50: 5.7 ± 2.2 nM
β2AR [1]
  intracellular cAMP level: induces intracellular cAMP level increase
[2]; at pH 8.0
  emission intensity decrease: 30%
β2AR-YFP fusion protein [3]
  Receptor internalization: triggered extensive βAR internalization and Yes
  Staining performance: Strong
β2AR-YFP fusion protein [3]; U2OS β2AR-YFP
  Competitive displacement: no signal and Yes
β2AR-YFP fusion protein [3]; U2OS β2AR-YFP, 100 nM, 40 min, room temperature, washed
  confocal staining at 100 nM: performed well
β2AR-YFP fusion protein [3]; U2OS β2AR-YFP, 250 nM, 40 min, room temperature, washed
  confocal staining at 250 nM: performed well

## CN(CCC(=O)NCCOCCOCCOCCOCCC(=O)NCCC(C)(C)NCC(O)COc1cccc2[nH]c3ccccc3c12)C(=O)c1c(F)c(F)c(F)c(F)c1C1=c2cc3c4c(c2Oc2c1cc1c5c2CCCN5C(C)(C)C=C1CS(=O)(=O)O)CCC[N+]=4C(C)(C)C=C3CS(=O)(=O)[O-] (stereo not drawn) [Carazolol-KK114 (24)]
β2AR [1]
  intracellular cAMP level: did not change
β2AR-YFP fusion protein [4]
  no-wash imaging staining: specific staining
[2]; pH ~7 versus pH ~5
  fluorescence intensity retained relative to maximal: about 90%
β2AR-YFP fusion protein [3]
  Receptor internalization: Weak
  Staining performance: Strong
β2AR-YFP fusion protein [3]; listed as carazolol-KK114 (24)
  Receptor internalization: did not change
β2AR-YFP fusion protein [3]; U2OS β2AR-YFP, 5 nM, 100 nM, 250 nM, 40 min
  confocal staining at all tested concentrations: specific staining
β2AR-YFP fusion protein [3]; U2OS β2AR-YFP
  Competitive displacement: Yes
β2AR-YFP fusion protein [3]; U2OS β2AR-YFP, listed as Carazalol-KK114 (24)
  Competitive displacement: no background fluorescence
β2AR [5]; 17 nM isoprenaline, 30 min incubation time, read-out: IC50
  IC50: 444 ± 79 nM
β2AR [5]; Cheng-Prusoff from IC50 right after addition of ligands, 17 nM isoprenaline, read-out: Ki app (mean ± SD)
  Ki: 162 ± 76 nM
β2AR [5]; displacement of 17 nM isoprenaline, readout immediately after addition of ligands (0 min), read-out: IC50 (mean ± SD)
  IC50: 2450 ± 494 nM
β2AR [5]; measurement 30 min after addition of the ligands, read-out: Ki app
  Ki: 29.3 ± 15 nM
